Experimental findings from US8048899B2, “Compounds which selectively modulate the CB2 receptor” (Boehringer Ingelheim International GmbH, priority 2008, dated 2011) are described below.

Each structure is given as a SMILES string.

As usually defined, the EC50 is the midpoint of the concentration-response curve. A higher EC50 goes with a less potent agent.

In one assay the target is T1, human CB1R (Homo sapiens, UniProt P21554).
T1 construct: host or cells: CHO cells
Nature of the assay: CB1R mediated modulation of cAMP synthesis. Format: cell-based. On the procedure:
C. CB1R Mediated Modulation of cAMP Synthesis:
Compounds of the invention are evaluated for their CB1 agonist or inverse agonistic activity in accordance with the following experimental method.
(§1) CHO cells expressing human CB1R (Euroscreen) are plated at a density of 5000 cells per well in 384 well plates and incubated overnight at 37° C. After removing the media, the cells are treated with test compounds diluted in stimulation buffer containing 1 mM IBMX, 0.25% BSA and 10 uM Forskolin. The assay is incubated for 30 minutes at 37° C. Cells are lysed and the cAMP concentration is measured using DiscoverX-XS cAMP kit, following the manufacturer's protocol. In this setting, agonists will decrease forskolin induced production of cAMP while inverse agonists will further increase forskolin induced production of cAMP. EC50 of agonists are calculated as follows. The maximal amount of cAMP produced by forskolin compared to the level of cAMP inhibited by 1 uM CP55940 is defined as 100%. […] Data is analyzed using a four-parameter logistic model. (Model 205 of XLfit 4.0).

The next assay has as its target T2, human CB2R (Homo sapiens, UniProt P34972).
T2 construct: host or cells: CHO cells
Nature of the assay: CB2R mediated modulation of cAMP synthesis. Type of assay: cell-based. The procedure: B. CB2R Mediated Modulation of cAMP Synthesis:
Compounds of the invention are evaluated for their CB2 agonist or inverse agonistic activity in accordance with the following experimental method.
as §1, with “CB2R” for “CB1R”

T1 sequence (P21554 whole entry): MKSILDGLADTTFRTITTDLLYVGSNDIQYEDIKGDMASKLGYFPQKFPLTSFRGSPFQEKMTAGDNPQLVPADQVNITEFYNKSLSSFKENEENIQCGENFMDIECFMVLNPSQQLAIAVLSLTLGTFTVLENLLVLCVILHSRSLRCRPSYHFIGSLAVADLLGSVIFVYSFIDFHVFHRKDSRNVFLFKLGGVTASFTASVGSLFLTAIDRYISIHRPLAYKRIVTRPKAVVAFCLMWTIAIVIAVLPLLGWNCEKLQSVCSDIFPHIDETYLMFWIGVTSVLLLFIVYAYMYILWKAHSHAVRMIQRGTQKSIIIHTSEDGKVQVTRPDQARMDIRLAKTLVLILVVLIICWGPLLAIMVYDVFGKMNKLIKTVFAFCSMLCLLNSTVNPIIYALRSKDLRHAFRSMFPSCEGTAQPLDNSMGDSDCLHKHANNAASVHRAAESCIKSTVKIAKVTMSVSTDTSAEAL
T2 sequence (P34972 whole entry): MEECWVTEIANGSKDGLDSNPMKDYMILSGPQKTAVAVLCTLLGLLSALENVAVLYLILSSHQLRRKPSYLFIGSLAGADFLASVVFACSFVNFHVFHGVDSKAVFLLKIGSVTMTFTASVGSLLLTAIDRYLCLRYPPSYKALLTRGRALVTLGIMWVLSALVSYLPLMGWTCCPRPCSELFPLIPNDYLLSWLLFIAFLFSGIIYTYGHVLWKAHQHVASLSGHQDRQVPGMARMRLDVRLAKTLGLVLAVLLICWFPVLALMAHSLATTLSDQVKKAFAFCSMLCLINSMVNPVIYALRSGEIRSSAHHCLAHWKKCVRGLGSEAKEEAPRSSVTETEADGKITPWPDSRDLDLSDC

For the compound `CC[C@H](C)S(=O)(=O)C(C)(C)C(=O)Nc1nnc(-c2ccc(OC)cc2)[nH]1`, the EC50 is more than 50000 nM on human CB1R and 47 nM at human CB2R.

On to `CC(C)(O)c1cc(NC(=O)C(C)(C)S(=O)(=O)CCCC(F)(F)F)on1`, for which the EC50 at human CB1R is more than 20000 nM; on human CB2R it was 49 nM.
